Reference: patent publication US4339427A, “Radioimmunoassay of thymosinα” (Hoffmann-la Roche Inc., priority 1980, dated 1982)
Where no end group is shown, it is not given here.

B1: CEA: oncodevelopmental antigen, carcinoembryonic antigen (Hoffmann-La Roche Inc.) (protein, UniProt P06731 35-685, looked up)
Cell adhesion molecule CEACAM5: KLTIESTPFNVAEGKEVLLLVHNLPQHLFGYSWYKGERVDGNRQIIGYVIGTQQATPGPAYSGREIIYPNASLLIQNIIQNDTGFYTLHVIKSDLVNEEATGQFRVYPELPKPSISSNNSKPVEDKDAVAFTCEPETQDATYLWWVNNQSLPVSPRLQLSNGNRTLTLFNVTRNDTASYKCETQNPVSARRSDSVILNVLYGPDAPTISPLNTSYRSGENLNLSCHAASNPPAQYSWFVNGTFQQSTQELFIPNITVNNSGSYTCQAHNSDTGLNRTTVTTITVYAEPPKPFITSNNSNPVEDEDAVALTCEPEIQNTTYLWWVNNQSLPVSPRLQLSNDNRTLTLLSVTRNDVGPYECGIQNELSVDHSDPVILNVLYGPDDPTISPSYTYYRPGVNLSLSCHAASNPPAQYSWLIDGNIQQHTQELFISNITEKNSGLYTCQANNSASGHSRTTVKTITVSAELPKPSISSNNSKPVEDKDAVAFTCEPEAQNTTYLWWVNGQSLPVSPRLQLSNGNRTLTLFNVTRNDARAYVCGIQNSVSANRSDPVTLDVLYGPDTPIISPPDSSYLSGANLNLSCHSASNPSPQYSWRINGIPQQHTQVLFIAKITPNNNGTYACFVSNLATGRNNSIVKSITVSASGTSPGLSA
B2: alpha-fetoprotein: oncodevelopmental antigen alpha-fetoprotein (Hoffmann-La Roche Inc.) (protein, UniProt P02771 19-609, looked up)
Alpha-fetoprotein: RTLHRNEYGIASILDSYQCTAEISLADLATIFFAQFVQEATYKEVSKMVKDALTAIEKPTGDEQSSGCLENQLPAFLEELCHEKEILEKYGHSDCCSQSEEGRHNCFLAHKKPTPASIPLFQVPEPVTSCEAYEEDRETFMNKFIYEIARRHPFLYAPTILLWAARYDKIIPSCCKAENAVECFQTKAATVTKELRESSLLNQHACAVMKNFGTRTFQAITVTKLSQKFTKVNFTEIQKLVLDVAHVHEHCCRGDVLDCLQDGEKIMSYICSQQDTLSNKITECCKLTTLERGQCIIHAENDEKPEGLSPNLNRFLGDRDFNQFSSGEKNIFLASFVHEYSRRHPQLAVSVILRVAKGYQELLEKCFQTENPLECQDKGEEELQKYIQESQALAKRSCGLFQKLGEYYLQNAFLVAYTKKAPQLTSSELMAITRKMAATAATCCQLSEDKLLACGEGAADIIIGHLCIRHEMTPVNPGVGQCCTSSYANRRPCFSSLVVDETYVPPAFSDDKFIFHKDLCQAQGVALQTMKQEFLINLVKQKPQITEEQLEAVIADFSGLLEKCCQGQEQEVCFAEEGQKLISKTRAALGV
B3: Myoglobin (equine): Myoglobin (equine) (protein, UniProt P68082 2-154, looked up)
Myoglobin: GLSDGEWQQVLNVWGKVEADIAGHGQEVLIRLFTGHPETLEKFDKFKHLKTEAEMKASEDLKKHGTVVLTALGGILKKKGHHEAELKPLAQSHATKHKIPIKYLEFISDAIIHVLHSKHPGDFGADAQGAMTKALELFRNDIAAKYKELGFQG

tested on: rabbit anti-thymosin α1 antiserum; experiment: radioimmunoassay for thymosin α1 (inhibition of tracer binding / cross-reactivity, double antibody method); details: not given
Experimental: a. Preparation of antisera
Synthetic thymosin α1 was coupled to Keyhole Limpet Hemocyanin (KLH) by means of glutaraldehyde using the following procedure. Equivalent amounts (dry weight) of each protein, thymosin α1 and hemocyanin, were dissolved in 0.25 M NaPO4, pH 7.0 buffer at a concentration of 2 mg/ml. […] The reaction was allowed to continue for 3 hours while being stirred at room temperature. The reaction mixture was diluted in sterile saline to a final concentration of thymosin α1 of 100 μg/ml. The solution of coupled thymosin α1 was aliquoted and stored at -20° C.
The mixture of products resulting from the cross-linking reactions carried out at room temperature was not fractionated or purified in any way. The thymosin α1 KLH conjugate was diluted with sterile normal saline and stored frozen for immunizations. Rabbits were immunized by administering 100 μg thymosin α1 (as the KLH conjugate) in emulsion with Ereund's Complete Adjuvant at 15-20 intradermal sites on the back of each rabbit according to the method of Vaitukaitis et al., J. Clin. Endoch. […] Weekly boosts of 50 μg thymosin α1 per animal in Freund's Incomplete Adjuvant were also administered at multiple intradermal sites.
b. Radioiodination of [Tyr^1 ]-thymosin α1
After a reaction time of 30 seconds at room temperature, the enzyme was inhibited by the addition of […]. […] The tracer was diluted 1:2,000 in immunoassay buffer to provide 4,000-5,000 cpm per assay tube, which is equivalent to less than 1 pg peptide mass per assay tube.
Separation of free from bound tracer is carried out by the addition of goat anti-rabbit gamma globulin serum, incubation for 1 hour at 37° C. and finally incubation at 4° C. for 16 hours. The immunoprecipitate is pelleted by centrifugation at 2500 rpm for 20 minutes, the supernatant is aspirated and discarded, and the radioactivity in the immunoprecipitate is counted in an automatic gamma spectrometer. The counts per minute for standards and unknowns are corrected for non-specific background and compared to the total counts per minute for the reaction tubes where no competing antigen was introduced.

| Molecule | cross-reactivity / competition in the RIA (in words) |
| --- | --- |
| TP.5: TP.5 (Ortho Pharmaceuticals) [reference compound] | no cross-reactivity |
| thymopoietin II fragment 29-41: thymopoietin II fragment 29-41 (Bachem, Inc.) (AGEQRKDVYVQLY; UniProt P42167 29-41, looked up, fragment) [reference compound] | no cross-reactivity |
| B1 | do not cross-react |
| B2 | do not cross-react |

same assay, conditions: RIA standard curve

| Molecule | ED50 (50% inhibition) of standard curve [pg] | operating range for the assay [pg] | slope at inflection point (50% inhibition) |
| --- | --- | --- | --- |
| thymosin α1: heat stable, acidic polypeptide composed of 28 amino acid residues (SDAAVDTSSEITTKDLKEKKEVVEEAEN; ends and bridges not checked; UniProt P06454 2-29, looked up) | 130 to 160 | 15 to 800 | -1.0 |

same assay, conditions: RIA standard curve; typically

| Molecule | minimal detectable dose (10% inhibition) [pg] |
| --- | --- |
| thymosin α1: heat stable, acidic polypeptide composed of 28 amino acid residues (SDAAVDTSSEITTKDLKEKKEVVEEAEN; ends and bridges not checked; UniProt P06454 2-29, looked up) | 8 to 15 |

same assay, conditions: Table 1; 125I-[Tyr1]-thymosin α1 tracer

| Molecule | ED50 - Amount of protein (ng) required to produce a 50% inhibition in RIA |
| --- | --- |
| Natural thymosin α1: heat stable, acidic polypeptide composed of 28 amino acid residues, isolated from calf thymus thymosin fraction 5 (SDAAVDTSSEITTKDLKEKKEVVEEAEN; ends and bridges not checked; UniProt P01252 2-29, looked up) | 0.45 ng |
| Synthetic thymosin α1: thymosin α1 obtained by peptide synthesis procedures (SDAAVDTSSEITTKDLKEKKEVVEEAEN; ends and bridges not checked; UniProt P06454 2-29, looked up) [reference compound] | 0.40 ng |
| Cytochrome C (equine): Cytochrome C (equine) | > 200,000 ng |
| Insulin (porcine): Insulin (porcine) | > 200,000 ng |
| TP.5: TP.5 (Ortho Pharmaceuticals) [reference compound] | > 15,000 ng |
| Erythopoietin (human): Erythopoietin (human) | > 160,000 ng |
| Glucagon (porcine): Glucagon (porcine) | > 500,000 ng |
| Hemoglobin (human): Hemoglobin (human) | > 200,000 ng |
| Transferrin (human): Transferrin (human) | > 50,000 ng |
| RPPGFSPFR [Bradykinin, reference compound] | > 50,000 ng |
| Fetuin (bovine): Fetuin (bovine) | > 250,000 ng |
| Serum albumin (bovine): Serum albumin (bovine) | > 250,000 ng |
| B1 | > 25,000 ng |
| B3 | 50,000 ng |
